PubChem BioAssay (NCI)
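These data come from cells grown in 96-well plates and exposed to compound for 48 hours at five concentrations. GI50 is the concentration that inhibits growth by half. Definition used: TGI = concentration required for complete inhibition of growth.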

Assays:
Experiment in all cases: NCI anticancer screen, dose series, 48 h
[1] = tested on: MALME-3M melanoma
[2] = tested on: M14 melanoma
[3] = tested on: HOP-92 NSCLC
[4] = tested on: PC-3 prostate
[5] = tested on: NCI/ADR-RES ovarian
[6] = tested on: SK-OV-3 ovarian
[7] = tested on: SF-268 CNS
[8] = tested on: BT-549 breast
[9] = tested on: A549 NSCLC
[10] = tested on: CCRF-CEM leukemia
[11] = tested on: EKVX NSCLC
[12] = tested on: 786-0 renal
[13] = tested on: A498 renal
[14] = tested on: T-47D breast
[15] = tested on: HT29 colon
[16] = tested on: HCC-2998 colon
[17] = tested on: SN12C renal
[18] = tested on: NCI-H522 lung
[19] = tested on: SR leukemia
[20] = tested on: SNB-75 CNS
[21] = tested on: UO-31 renal
[22] = tested on: UACC-62 melanoma
[23] = tested on: OVCAR-8 ovarian
[24] = tested on: SK-MEL-5 melanoma
[25] = tested on: MCF7 breast
[26] = tested on: SF-539 CNS
[27] = tested on: RXF 393 renal
[28] = tested on: SK-MEL-2 melanoma
[29] = tested on: OVCAR-5 ovarian
[30] = tested on: COLO 205 colon
[31] = tested on: LOX IMVI melanoma
[32] = tested on: MDA-MB-231 breast
[33] = tested on: K-562 leukemia
[34] = tested on: MDA-MB-435
[35] = tested on: SF-295 CNS
[36] = tested on: KM12 colon
[37] = tested on: TK-10 renal
[38] = tested on: HCT-15 colon
[39] = tested on: ACHN renal
[40] = tested on: CAKI-1 renal
[41] = tested on: OVCAR-4 ovarian
[42] = tested on: MOLT-4 leukemia
[43] = tested on: SK-MEL-28 melanoma
[44] = tested on: NCI-H460 lung
[45] = tested on: SW-620 colon
[46] = tested on: NCI-H226 lung
[47] = tested on: SNB-19 CNS
[48] = tested on: DU-145 prostate
[49] = tested on: HCT-116 colon
[50] = tested on: U251 CNS
[51] = tested on: HS 578T breast
[52] = tested on: RPMI-8226 leukemia
[53] = tested on: NCI-H23 lung
[54] = tested on: HOP-62 NSCLC
[55] = tested on: UACC-257 melanoma
[56] = tested on: IGROV1 ovarian
[57] = tested on: OVCAR-3 ovarian

Question: What does the source list for `C#CC(=O)Nc1cccc2c1cc(C)n2-c1nc2c(c(NCc3ccccc3)n1)CCCC2`?
Answer: GI50 [1]: 54.7 nM; TGI [1]: 195 nM; GI50 [2]: 303 nM; TGI [2]: 1130 nM; GI50 [3]: 142 nM; TGI [3]: 315 nM; GI50 [4]: 186 nM; TGI [4]: 351 nM; GI50 [5]: 127 nM; TGI [5]: 645 nM; GI50 [6]: 519 nM; TGI [6]: 1090 nM; GI50 [7]: 199 nM; TGI [7]: 438 nM; GI50 [8]: 137 nM; TGI [8]: 324 nM; GI50 [9]: 1970 nM; TGI [9]: 4100 nM; GI50 [10]: 25.5 nM; TGI [10]: 60.5 nM; GI50 [11]: 1310 nM; TGI [11]: 2960 nM; GI50 [12]: 18.9 nM; TGI [12]: 35.9 nM; GI50 [13]: 1750 nM; TGI [13]: 3740 nM; GI50 [14]: 697 nM; TGI [14]: 3330 nM; GI50 [15]: 54.3 nM; TGI [15]: 121 nM; GI50 [16]: 335 nM; TGI [16]: 1000 nM; GI50 [17]: 70.6 nM; TGI [17]: 427 nM; GI50 [18]: 17.4 nM; TGI [18]: 37.2 nM; GI50 [19]: < 20.1 nM; TGI [19]: 50.7 nM; GI50 [20]: 141 nM; TGI [20]: 294 nM; GI50 [21]: 46.6 nM; TGI [21]: 124 nM; GI50 [22]: 165 nM; TGI [22]: 351 nM; GI50 [23]: 136 nM; TGI [23]: 779 nM; GI50 [24]: 98.5 nM; TGI [24]: 259 nM; GI50 [25]: 226 nM; TGI [25]: 1230 nM; GI50 [26]: 172 nM; TGI [26]: 337 nM; GI50 [27]: 152 nM; TGI [27]: 311 nM; GI50 [28]: 1250 nM; TGI [28]: 2920 nM; GI50 [29]: 279 nM; TGI [29]: 977 nM; GI50 [30]: 267 nM; TGI [30]: 803 nM; GI50 [31]: < 13.2 nM; TGI [31]: < 18.4 nM; GI50 [32]: 57.8 nM; TGI [32]: 261 nM; GI50 [33]: 368 nM; TGI [33]: 3450 nM; GI50 [34]: 463 nM; TGI [34]: 1660 nM; GI50 [35]: 207 nM; TGI [35]: 510 nM; GI50 [36]: 213 nM; TGI [36]: 546 nM; GI50 [37]: 1660 nM; TGI [37]: 3090 nM; GI50 [38]: 167 nM; TGI [38]: 409 nM; GI50 [39]: 273 nM; TGI [39]: 786 nM; GI50 [40]: 478 nM; TGI [40]: 942 nM; GI50 [41]: 208 nM; TGI [41]: 491 nM; GI50 [42]: 150 nM; TGI [42]: 443 nM; GI50 [43]: 1220 nM; TGI [43]: 2790 nM; GI50 [44]: 759 nM; TGI [44]: 2590 nM; GI50 [45]: 200 nM; TGI [45]: 461 nM; GI50 [46]: 250 nM; TGI [46]: 644 nM; GI50 [47]: 845 nM; TGI [47]: 2660 nM; GI50 [48]: 1180 nM; TGI [48]: 2540 nM; GI50 [49]: 174 nM; TGI [49]: 415 nM; GI50 [50]: 178 nM; TGI [50]: 338 nM; GI50 [51]: 353 nM; TGI [51]: 3070 nM

Question: What does the source list for `Oc1c(Cl)cc(Cl)cc1/C=N/Nc1nnc(N/N=C/c2cc(Cl)cc(Cl)c2O)c2ccccc12`?
Answer: GI50 [1]: 680 nM; TGI [1]: > 100000 nM; GI50 [2]: 434 nM; TGI [2]: > 100000 nM; GI50 [3]: 284 nM; GI50 [52]: 405 nM; TGI [52]: > 100000 nM; GI50 [5]: 363 nM; TGI [5]: > 100000 nM; GI50 [6]: 563 nM; TGI [6]: > 81700 nM; GI50 [7]: 407 nM; TGI [7]: > 100000 nM; GI50 [8]: 549 nM; TGI [8]: > 100000 nM; GI50 [9]: 419 nM; TGI [9]: > 100000 nM; GI50 [53]: 406 nM; TGI [53]: > 100000 nM; GI50 [10]: 275 nM; GI50 [11]: 429 nM; TGI [11]: > 100000 nM; GI50 [54]: 388 nM; TGI [54]: > 28800 nM; GI50 [12]: 418 nM; TGI [12]: > 100000 nM; GI50 [13]: 2190 nM; TGI [13]: > 100000 nM; GI50 [14]: 506 nM; TGI [14]: > 100000 nM; GI50 [15]: 595 nM; TGI [15]: > 100000 nM; GI50 [16]: 469 nM; TGI [16]: > 100000 nM; GI50 [17]: 543 nM; TGI [17]: > 100000 nM; GI50 [18]: 366 nM; TGI [18]: 6700 nM; GI50 [19]: 434 nM; TGI [19]: > 100000 nM; GI50 [20]: 867 nM; TGI [20]: > 31100 nM; GI50 [21]: 430 nM; TGI [21]: > 100000 nM; GI50 [22]: 318 nM; TGI [22]: 1710 nM; GI50 [23]: 406 nM; TGI [23]: > 100000 nM; GI50 [24]: 505 nM; TGI [24]: 2200 nM; GI50 [25]: 482 nM; TGI [25]: > 100000 nM; GI50 [26]: 258 nM; TGI [26]: 640 nM; GI50 [27]: 278 nM; TGI [27]: 798 nM; GI50 [28]: 770 nM; TGI [28]: > 100000 nM; GI50 [55]: 1440 nM; TGI [55]: > 100000 nM; GI50 [29]: 957 nM; TGI [29]: > 100000 nM; GI50 [30]: 433 nM; TGI [30]: > 100000 nM; GI50 [31]: 225 nM; TGI [31]: 586 nM; GI50 [56]: 419 nM; TGI [56]: > 100000 nM; GI50 [32]: 479 nM; TGI [32]: > 100000 nM; GI50 [33]: 372 nM; TGI [33]: > 100000 nM; GI50 [34]: 484 nM; TGI [34]: > 30900 nM; GI50 [36]: 335 nM; TGI [36]: > 100000 nM; GI50 [57]: 334 nM; TGI [57]: 18200 nM; GI50 [37]: 704 nM; TGI [37]: > 100000 nM; GI50 [38]: 334 nM; TGI [38]: > 100000 nM; GI50 [39]: 394 nM; TGI [39]: > 100000 nM; GI50 [40]: 643 nM; GI50 [41]: 388 nM; TGI [41]: > 100000 nM; GI50 [42]: 363 nM; TGI [42]: > 100000 nM; GI50 [43]: 622 nM; TGI [43]: > 100000 nM; GI50 [44]: 340 nM; TGI [44]: 2260 nM; GI50 [45]: 416 nM; TGI [45]: > 100000 nM; GI50 [46]: 402 nM; TGI [46]: 3040 nM; GI50 [47]: 505 nM; TGI [47]: > 100000 nM; GI50 [48]: 715 nM; TGI [48]: > 100000 nM; GI50 [49]: 433 nM; TGI [49]: > 100000 nM; GI50 [50]: 345 nM; TGI [50]: > 52600 nM; GI50 [51]: 1030 nM; TGI [51]: > 100000 nM
